Results as given in patent US20100260694A1, “Methionine Sulfoxide Peptide, Compositions And Methods Of Use” (priority 2009, published 2010).

Columns and labels:
Msr [1] = experiment: Msr expression in NHEK by RT-PCR and gel electrophoresis; format: cell-based, human; settings: for level of Msr compared to a housekeeping gene: keratinocytes, RT-PCR
Experimental: The first material tried was oxidized methionine (the sulfoxide form). […] However, in an experiment performed in February of 2004, an oxidized polypeptide gave very good results. Investigations continued along those lines.
(§1) NHEK cells were incubated overnight in culture medium (control) and in culture medium containing oxidized peptide and in culture medium containing unoxidized peptide (control). Concentrations (mg/mL) of the oxidized peptide included 0.01, 0.1 and 0.25. The unoxidized peptide (i.e. Met-enkephalin) was tested only at 0.25 mg/mL. After incubation, mRNA was extracted from the cells and cDNA was prepared by reverse transcription polymerase chain reaction (RT-PCR). Samples were probed for Msr via gel electrophoresis using β-microglobulin as a control.

Msr [2] = experiment: Msr in NHEK, confirmation by Western blotting; format: cell-based, human; settings: overnight incubation
Experimental: as §1

elastase = target: T1, elastase (Sus scrofa, UniProt P00772); experiment: Elastase activity assay (Molecular Probes) adapted for inhibition with α1-antitrypsin; format: biochemical
T1 construct: purchased Molecular Probes
Experimental: (§2) Methods: An elastase assay from Molecular Probes was utilized and adapted for inhibition with α1-antitrypsin. Fluorescence was measured by excitation at 485 nm and emission at 525 nm in a CytoFluor plate reader.
This was achieved by incubating 0.1 mg/ml elastin and 0.05 units/ml elastase with α1-antitrypsin in a dose-dependent manner (2.5-50 ug/sample). The results are shown in FIG. 8, where con=control; E=elastase; I=inhibitor (included with assay); AT=α1-antitrypsin.
This was done by oxidizing 10 μg of α1-antitrypsin with hydrogen peroxide.
(§3) This was achieved by incubating the A1AT that had been oxidized in 30 mM H2O2 with 0.7 mg/ml msrA and 10 mM DTT for 2 hours. […] We start with 100% elastase. As before, α1-antitrypsin (AT) removes about 90% of the elastase activity (bar labeled Elastase+AT).

[3] = test system: Epidermal Full Thickness 200 (EFT 200) living skin models; experiment: Sunburn Cell production in UVB-irradiated EFT 200 living skin models; format: cell-based; settings: 1 mg/ml for 48 hours, then 100 mJ/cm^2 UVB
Experimental: Methods: Epidermal Full Thickness 200 (EFT 200) living skin models were obtained from MatTek and incubated for 48 hours in media with or without 1 mg/ml of the MetO-enkephalin. The oxidized peptide can be stored at room temperature. Because the peptide is already oxidized, it has relative low reactivity in storage. Two ml of media were added beneath the living skin models, which were situated on a transwell membrane to allow the maintenance of an air/aqueous interface. After 48 hours, the living skin models were exposed to 100 mJ/cm^2 UVB, re-fed, and incubated overnight. The next day, the samples were fixed in 10% formalin and sent to Paragon Bioservices for histological sectioning and H&E staining. Five contiguous microscopic fields for each section were evaluated for the presence of SBC by counting the number of SBC and uninvolved cells and expressing SBC as a percentage of the total. Sunburn Cells are characterized by eosinophilic staining of the cytoplasm and pyknotic nuclei (condensed chromatin).

[4] = UV spectrum of the peptide; format: physicochemical; settings: at 290 nm
keratinocytes = experiment: Cytotoxicity in keratinocytes; format: cell-based; settings: various concentrations, epidermal cells / keratinocytes
oxidized α1-antitrypsin = oxidized α1-antitrypsin (Homo sapiens, UniProt P01009); experiment: Reversal of α1-antitrypsin oxidation by msrA, read out in elastase activity assay; format: biochemical; settings: oxidized A1AT incubated with 0.7 mg/mL MsrA and 10 mM DTT for 2 hours
Experimental: as §2, §3

T1 sequence (P00772 27-266): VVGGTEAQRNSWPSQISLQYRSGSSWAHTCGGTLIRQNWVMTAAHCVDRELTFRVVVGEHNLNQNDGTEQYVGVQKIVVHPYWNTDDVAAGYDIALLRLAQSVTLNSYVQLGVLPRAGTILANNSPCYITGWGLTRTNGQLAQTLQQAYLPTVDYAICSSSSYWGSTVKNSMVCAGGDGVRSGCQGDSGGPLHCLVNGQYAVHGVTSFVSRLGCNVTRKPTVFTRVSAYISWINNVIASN
Chain of oxidized α1-antitrypsin (P01009 25-418): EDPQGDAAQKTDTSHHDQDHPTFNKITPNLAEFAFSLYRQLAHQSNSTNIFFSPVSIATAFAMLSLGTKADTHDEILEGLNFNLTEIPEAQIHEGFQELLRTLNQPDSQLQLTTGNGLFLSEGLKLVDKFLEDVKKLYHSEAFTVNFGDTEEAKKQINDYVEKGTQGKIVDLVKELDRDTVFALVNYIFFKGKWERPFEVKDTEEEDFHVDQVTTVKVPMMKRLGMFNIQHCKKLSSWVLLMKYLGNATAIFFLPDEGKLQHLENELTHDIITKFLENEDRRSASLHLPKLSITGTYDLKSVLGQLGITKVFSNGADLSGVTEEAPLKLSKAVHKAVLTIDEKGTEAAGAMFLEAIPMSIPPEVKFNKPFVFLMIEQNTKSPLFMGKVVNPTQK

In the case of `CSCC[C@H](NC(=O)[C@@H](Cc1ccccc1)NC(=O)CNC(=O)CNC(=O)[C@H](N)Cc1ccc(O)cc1)C(=O)O` [Met-enkephalin, Met- enkephalin, reference compound], the “increase in Msr expression” value (Msr [1]; NHEK, overnight incubation, 0.25 mg/mL) is reported as “no significant increase” and the “Msr mRNA in treated cells by Western blotting” value (Msr [2]) is reported as “no significant increases of Msr mRNA”.

For “α1-antitrypsin: serin protease inhibitor made in the liver, inhibits a wide variety of proteases”, the “elastase inhibition after oxidation with H2O2” value (elastase; 10 μg α1-antitrypsin oxidized with 30 mM H2O2, 3 hours, ambient temperature) was “almost all elastase inhibition provided by α1-antitrypsin, is lost”, the “elastase activity (fluorescence), dose dependence” value (elastase; 0.1 mg/ml elastin, 0.05 units/ml elastase, α1-antitrypsin 2.5-50 ug/sample) was “Fluorescence decreases with increasing concentration of α1-antitrypsin” and the elastase activity removed (elastase; bar Elastase+AT, FIG. 10) was “about 90%”.

In the case of `C[S+]([O-])CC[C@H](N)C(=O)O` (some centres unmarked) [oxidized methionine, methionine sulfoxide], the “level of Msr compared to a housekeeping gene” value (Msr [1]) is reported as “not significantly raised”.

For “Tyr - Gly - Gly - Phe - MetO [MetO-enkephalin]”, the “average increase in Msr expression” value (Msr [1]; NHEK, overnight incubation, oxidized peptide concentration 0.01%) was 18%, the “average increase in Msr expression” value (Msr [1]; NHEK, overnight incubation, oxidized peptide concentration 0.1%) was 28% and the “average increase in Msr expression” value (Msr [1]; NHEK, overnight incubation, oxidized peptide concentration 0.25%) was 25.4%. The “Msr mRNA in treated cells by Western blotting” value (Msr [2]) was “increases of Msr mRNA”, the “average percent reduction in SBC from both trials” value [3] was 31.1% and the extinction coefficient [4] was 145.5. For the same molecule, the k-value of absorbance [4] was 0.24 and the cytotoxicity (keratinocytes) was “low cytotoxicity”.

For “Oxidized bovine serum albumin: Oxidized bovine serum albumin, a comparatively large protein”, the “level of Msr compared to a housekeeping gene” value (Msr [1]) was “without success”.

In the case of “ATox: α1-antitrypsin oxidized in 30 mM H2O2”, the “elastase activity with oxidized α1-antitrypsin” value (elastase; bar Elastase+ATox, FIG. 10, oxidized in 30 mM H2O2) is reported as “all of the elastase activity returns”.

B1: MsrA: form of Msr involved in the reduction of the S-stereoisomer (protein, UniProt Q9UJ68 24-235, looked up)
Mitochondrial peptide …: GNSASNIVSPQEALPGRKEQTPVAAKHHVNGNRTVEPFPEGTQMAVFGMGCFWGAERKFWVLKGVYSTQVGFAGGYTSNPTYKEVCSEKTGHAEVVRVVYQPEHMSFEELLKVFWENHDPTQGMRQGNDHGTQYRSAIYPTSAKQMEAALSSKENYQKVLSEHGFGPITTDIREGQTFYYAEDYHQQYLSKNPNGYCGLGGTGVSCPVGIKK
In the case of B1, the “re-inhibition of elastase activity” value (oxidized α1-antitrypsin) is reported as “over 59%”.
